Test results as given in US20160237059A1, “HETEROCYCLIC SUBSTITUTED TRIFLUOROMETHYL PYRIMIDINONES AND THEIR USE” (BAYER PHARMA AKTIENGESELLSCHAFT, priority 2013, published 2016).

Columns and labels:
murine CCR2 = molecular target: T1, murine CCR2 (Mus musculus, UniProt P51683); assay: Functional β-arrestin recruiting test with murine MCP-1 (B-2b); type: cell-based; conditions: U2OS β-arrestin cell line transfected with murine CCR2; agonist murine MCP-1; in some cases means of several determinations
T1 construct: host or cells: U2OS β-arrestin cell line
T1 sequence (P51683 whole entry): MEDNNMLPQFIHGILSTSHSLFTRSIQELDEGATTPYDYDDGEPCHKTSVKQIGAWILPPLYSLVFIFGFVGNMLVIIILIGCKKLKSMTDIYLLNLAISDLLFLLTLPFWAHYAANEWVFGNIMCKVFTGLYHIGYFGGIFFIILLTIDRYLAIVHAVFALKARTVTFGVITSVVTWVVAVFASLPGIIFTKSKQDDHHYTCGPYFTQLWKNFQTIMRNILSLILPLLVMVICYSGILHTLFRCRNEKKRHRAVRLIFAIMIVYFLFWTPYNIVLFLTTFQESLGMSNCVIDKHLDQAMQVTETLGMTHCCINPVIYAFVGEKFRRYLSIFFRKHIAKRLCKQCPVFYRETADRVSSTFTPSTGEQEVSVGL
Procedure: The antagonistic action of test substances on CCR2 was determined in a β-arrestin test. The PathHunter β-arrestin GPCR test system (DiscoveRx Corporation, Ltd.) is a cell-based functional method for detecting binding of β-arrestin to an activated receptor. The molecular basis is a […] complementation measured by the enzymatic conversion of a chemiluminescent substrate. The test cell used was a U2OS β-arrestin cell line transfected with murine CCR2 (93-0543C3, DiscoveRx Corporation, Ltd.).
(§1) The test substances were dissolved in dimethyl sulphoxide (DMSO) at a concentration of 10 mM and serially diluted with DMSO in steps of 1:3.16 for a 10-point dose/activity analysis. According to the desired test concentrations, the substances were pre-diluted in Tyrode with 2 mM CaCl2 and 0.05% BSA.
The cells, cultivated in MEM Eagle (supplemented with 10% FCS, 50 U/ml of penicillin, 50 μg/ml of streptomycin, 250 μg/ml of hygromycin and 500 μg/ml of geniticin), were sown at 2000 cells/25 μl in 384 well, μCLEAR/black cell culture plates from Greiner (#781092) and incubated at 37° C. for 24 h. The sowing medium consisted of Opti-MEM (supplemented with 1% FCS, 50 U/ml of penicillin and 50 μg/ml of streptomycin). The cells were pre-incubated for 10 min with 10 μl of the test substances diluted in buffer, and 10 μl of agonist solution [human MCP-1 (PeproTech, #300-04) in Tyrode with 0.05% BSA) were then added. The human MCP-1 was employed at the concentration which corresponds to the EC50 which had been determined in a preliminary test (usually about 3 nM). After 90 min of incubation at 37° C., the solution was removed, and recruitment of β-arrestin to CCR2 was detected with the aid of the PathHunter detection reagent (93-001, DiscoveRx Corporation, Ltd.) according to the instructions of the manufacturer. Luminescence was measured after an incubation time of 60 min using a proprietary luminescence imaging measuring instrument. The molar concentration of the test substance which caused 50% inhibition of the MCP-1 effect (IC50) was determined using a 4-parameter logistic function (Hill function).
The test was carried out in a manner identical to that described above under B-2a, but using murine MCP-1 (PeproTech, #250-10) as agonist.

human CCR2 = molecular target: T2, human CCR2 (Homo sapiens, UniProt P41597); assay: Functional Ca2+ release test (B-1); type: cell-based; conditions: Chem-1 cell line transfected with human CCR2; 50% inhibition of the MCP-1 effect, MCP-1 at EC50 (about 5 nM); in some cases means of several determinations
T2 construct: host or cells: Chem-1 cell line
T2 sequence (P41597 1-360 isoform P41597-2): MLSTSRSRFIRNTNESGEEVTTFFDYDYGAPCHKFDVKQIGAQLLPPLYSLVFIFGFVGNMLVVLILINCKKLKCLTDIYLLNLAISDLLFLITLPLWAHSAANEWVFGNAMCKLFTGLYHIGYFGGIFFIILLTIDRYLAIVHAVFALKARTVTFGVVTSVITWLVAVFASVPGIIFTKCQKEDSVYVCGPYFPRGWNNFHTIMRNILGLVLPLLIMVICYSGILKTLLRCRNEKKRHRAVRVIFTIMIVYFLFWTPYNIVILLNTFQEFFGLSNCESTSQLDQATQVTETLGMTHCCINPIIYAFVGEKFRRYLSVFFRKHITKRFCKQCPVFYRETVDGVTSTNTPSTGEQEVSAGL
Procedure: The antagonistic action of test substances on CCR2 was determined in a functional Ca^2+ release test. Binding of CCL2/MCP-1 to CCR2 leads to a change in the conformation of the receptor resulting in Gi/Gq protein activation and intracellular signal cascade. This involves, inter alia, an intracellular Ca^2+ release. The test cell used was a Chem-1 cell line transfected with human CCR2 (ChemiSCREEN™ CCR2B Calcium-Optimized FLIPR Cell Line, Merck Millipore).
as §1
The cells, cultivated in DMEM high glucose [supplemented with 10% FCS, 1 mM pyruvate, 15 mM HEPES, 500 μg/ml geniticin and non-essential amino acids (NEAA)], were sown at 5000 cells/25 μl in 384 well, μCLEAR/black cell culture plates from Greiner (#781092) and incubated at 37° C. for 24 h. The sowing medium consisted of DMEM high glucose [supplemented with 5% FCS, 1 mM pyruvate, 15 mM HEPES, 50 U/ml penicillin, 50 μg/ml streptomycin and non-essential amino acids (NEAA)]. The medium was then removed and the cells were charged for 60 min at 37° C. with Fluo-4 dye [25 μl Tyrode with 3 μM Fluo-4 AM (1 mM DMSO stock solution), 0.4 mg/ml Brilliant Black, 2.5 mM probenicid, 0.03% Pluronic F-127]. The cells were pre-incubated for 10 min with 10 μl of the test substances diluted in buffer, and 20 μl of agonist solution (MCP-1 in Tyrode with 0.05% BSA) were then added. MCP-1 was employed at the concentration which corresponds to the EC50 which had been determined in a preliminary test (usually about 5 nM). Ca^2+ release was monitored over a period of 120 s in 1 s increments in a proprietary fluorescence imaging reader. The molar concentration of the test substance which caused 50% inhibition of the MCP-1 effect (IC50) was determined using a 4-parameter logistic function (Hill function).

Structure (SMILES) | IC50 (murine CCR2) [nM] | IC50 (human CCR2) [nM]
O=c1[nH]c(-c2n[nH]c3ccccc23)nc(C(F)(F)F)c1Oc1ccc(Cl)c(Cl)c1 [Example 139, 5-(3,4-Dichlorophenoxy)-2-(1H-indazol-3-yl)-6-(trifluoromethyl)pyrimidin-4(3H)-one] | 229 | 0.7
COc1cncnc1-c1nc(C(F)(F)F)c(Oc2ccc(Cl)c(Cl)c2)c(=O)[nH]1 [Example 143, 5-(3,4-dichlorophenoxy)-5′-methoxy-6-(trifluoromethyl)-2,4′-bipyrimidin-4(3H)-one] | 86 | 1.1
CC(C)Oc1ccnc(-c2nc(C(F)(F)F)c(Oc3ccc(Cl)c(Cl)c3)c(=O)[nH]2)c1 [Example 145, 5-(3,4-dichlorophenoxy)-2-(4-isopropoxypyridin-2-yl)-6-(trifluoromethyl)pyrimidin-4(3H)-one] | 2810 | 322
CC(C)(C)Oc1cccc(-c2nc(C(F)(F)F)c(Oc3ccc(Cl)c(Cl)c3)c(=O)[nH]2)n1 [Example 146, 2-(6-tent-butoxypyridin-2-yl)-5-(3,4-dichlorophenoxy)-6-(trifluoromethyl)pyrimidin-4(3H)-one] | 3500 | 404
COc1ccnc(-c2nc(C(F)(F)F)c(Oc3ccc(Cl)c(Cl)c3)c(=O)[nH]2)c1 [Example 147, 5-(3,4-dichlorophenoxy)-2-(4-methoxypyridin-2-yl)-6-(trifluoromethyl)pyrimidin-4(3H)-one] | 373 | 121
COc1ccc(-c2nc(C(F)(F)F)c(Oc3ccc(Cl)c(Cl)c3)c(=O)[nH]2)nc1 [Example 148, 5-(3,4-dichlorophenoxy)-2-(5-methoxypyridin-2-yl)-6-(trifluoromethyl)pyrimidin-4(3H)-one] | 454 | 42

Second part, the molecule after the results:

IC50 (murine CCR2) [nM] | IC50 (human CCR2) [nM] | Structure (SMILES)
334 | 16 | Cn1nc(-c2nc(C(F)(F)F)c(Oc3ccc(Cl)c(C(F)(F)F)c3)c(=O)[nH]2)c2ccccc21 [Example 137, 5-[4-chloro-3-(trifluoromethyl)phenoxy]-2-(1-methyl-1H-indazol-3-yl)-6-(trifluoromethyl)pyrimidin-4(3H)-one]
412 | 1.4 | COc1cccnc1-c1nc(C(F)(F)F)c(Oc2ccc(Cl)c(OC(F)(F)F)c2)c(=O)[nH]1 [Example 138]
75 | 0.8 | O=c1[nH]c(-c2n[nH]c3ccccc23)nc(C(F)(F)F)c1Oc1ccc(Cl)c(C(F)(F)F)c1 [Example 140, 5-[4-chloro-3-(trifluoromethyl)phenoxy]-2-(1H-indazol-3-yl)-6-(trifluoromethyl)pyrimidin-4(3H)-one]
274 | 5.1 | Cn1nc(-c2nc(C(F)(F)F)c(Oc3ccc(Cl)c(Cl)c3)c(=O)[nH]2)c2c(Cl)cccc21 [Example 141, 2-(4-chloro-1-methyl-1H-indazol-3-yl)-5-(3,4-dichlorophenoxy)-6-(trifluoromethyl)pyrimidin-4(3H)-one]
246 | 3.3 | Cn1nc(-c2nc(C(F)(F)F)c(Oc3ccc(Cl)c(C(F)(F)F)c3)c(=O)[nH]2)c2c(Cl)cccc21 [Example 142, 2-(4-chloro-1-methyl-1H-indazol-3-yl)-5-[4-chloro-3-(trifluoromethyl)phenoxy]-6-(trifluoromethyl)pyrimidin-4(3H)-one]
759 | 17 | COc1cccc(-c2nc(C(F)(F)F)c(Oc3ccc(Cl)c(Cl)c3)c(=O)[nH]2)n1 [Example 144, 5-(3,4-dichlorophenoxy)-2-(6-methoxypyridin-2-yl)-6-(trifluoromethyl)pyrimidin-4(3H)-one]
526 | 0.7 | COc1cccc(-c2nc(C(F)(F)F)c(Oc3ccc(Cl)c(C(F)(F)F)c3)c(=O)[nH]2)n1 [Example 149, 5-[4-chloro-3-(trifluoromethyl)phenoxy]-2-(6-methoxypyridin-2-yl)-6-(trifluoromethyl)pyrimidin-4(3H)-one]
